{"source": "ChEMBL document CHEMBL1127303", "about": "“Triazolinone biphenylsulfonamides as angiotensin II receptor antagonists with high affinity for both the AT1 and AT2 subtypes” (J Med Chem, 1994)", "key": {"Rattus norvegicus [1]": {"system": "Rattus norvegicus", "assay": "Tested for the ability to inhibit the pressor response to angiotensin II (AII) by oral administration at the dose of 1.0 mg/kg with duration of>6, <24 hr in two rats", "assay_type": "functional"}, "Rattus norvegicus [2]": {"system": "Rattus norvegicus", "assay": "Tested for the ability to inhibit the pressor response to angiotensin II (AII) by intravenous administration at the dose of 1.0 mg/kg with duration of >6, <24 hr in two rats", "assay_type": "functional"}}, "data": [{"compound": "CCCCc1nn(-c2ccccc2C(F)(F)F)c(=O)n1Cc1ccc(-c2ccccc2S(=O)(=O)NC(=O)OC(C)(C)C)cc1", "values": [{"measurement": "inhibition in vivo at 1 mg/kg", "setting": "Rattus norvegicus [1]", "value": 87, "unit": "%"}, {"measurement": "inhibition in vivo at 1 mg/kg", "setting": "Rattus norvegicus [2]", "value": 83, "unit": "%"}]}]}
